Assay [1] deals with T1, Y152A mutant mouse 5-HT3ASR (Mus musculus, UniProt P23979, Y153A).
T1 sequence (P23979 24-483 isoform P23979-2 Y153A): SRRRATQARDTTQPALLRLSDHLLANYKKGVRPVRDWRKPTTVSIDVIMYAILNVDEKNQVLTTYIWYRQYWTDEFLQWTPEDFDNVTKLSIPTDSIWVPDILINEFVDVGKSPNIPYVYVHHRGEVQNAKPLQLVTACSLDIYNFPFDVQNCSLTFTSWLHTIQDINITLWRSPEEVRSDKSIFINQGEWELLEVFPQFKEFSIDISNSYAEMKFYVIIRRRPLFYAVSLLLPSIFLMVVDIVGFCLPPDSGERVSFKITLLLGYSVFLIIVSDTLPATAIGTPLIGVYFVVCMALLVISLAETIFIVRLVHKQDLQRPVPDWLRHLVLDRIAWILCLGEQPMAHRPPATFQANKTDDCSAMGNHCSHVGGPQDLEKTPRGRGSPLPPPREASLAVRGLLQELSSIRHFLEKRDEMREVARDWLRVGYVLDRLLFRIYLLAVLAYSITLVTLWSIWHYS
Nature of the assay: [^3H]granisetron saturation binding, Y152A receptor. The conditions noted are these: ± SE.

Assay [2] deals with T2, V149A mutant mouse 5-HT3ASR (Mus musculus, UniProt P23979, V150A).
T2 sequence (P23979 24-483 isoform P23979-2 V150A): T1 sequence (P23979 24-483 isoform P23979-2 Y153A) with V127A, A130Y
Nature of the assay: [^3H]granisetron saturation binding, V149A receptor.

Assay [3] concerns the target T3, Y142A mutant mouse 5-HT3ASR (Mus musculus, UniProt P23979, Y143A).
T3 sequence (P23979 24-483 isoform P23979-2 Y143A): T1 sequence (P23979 24-483 isoform P23979-2 Y153A) with Y120A, A130Y
Put plainly: [^3H]granisetron saturation binding, Y142A receptor. The conditions noted are these: ± SE.

Assay [4] addresses T4, G147A mutant mouse 5-HT3ASR (Mus musculus, UniProt P23979, G148A).
T4 sequence (P23979 24-483 isoform P23979-2 G148A): T1 sequence (P23979 24-483 isoform P23979-2 Y153A) with G125A, A130Y
Nature of the assay: [^3H]granisetron saturation binding, G147A receptor.

Each structure is given as a SMILES string. Positions count from the first letter of the chain named.

Turning to `CN1C2CCCC1CC(NC(=O)c1nn(C)c3ccccc13)C2` (centres unmarked) [[^3H]granisetron], the results for the Bmax in assay [1] and in assay [3] were 0.59 ± .10 pmol/mg protein and 0.97 ± .14 pmol/mg protein, respectively. The “binding of [^3H]granisetron” value in assay [2] and in assay [4] was “No detectable binding” in each case. In addition, the “Hill coefficient (n)” value in assay [3] came to 1.6 ± 0.27.

The values above are taken from article PMC117120 (BMC Biochemistry, 2002).
